The source made the active and inactive calls. No cut-off for these calls is given here.
How the values were obtained:
[1] = Cytotoxicity against human ViBo cells at IC50 after 24 hrs by LDH release assay relative to control; type: functional
[2] = tested on: HeLa; test: Induction of apoptosis in human HeLa cells assessed as effect on cell morphology; type: functional, cell-based
[3] = Cytotoxicity against human CaSki cells at IC50 after 24 hrs by LDH release assay relative to control; type: functional, Ca-Ski
[4] = (§1) Antiproliferative activity against human CaSki cells after 24 hrs by MTT assay; type: functional, cell-based; conditions: Ca-Ski
[5] = tested on: Ca-Ski; test: as §1; type: functional, cell-based
[6] = Cell cycle arrest in human ViBo cells assessed as accumulation at S phase at IC50 after 24 hrs by propidium iodide staining-based flow cytometric analysis relative to control; type: functional
[7] = tested on: ViBo; test: Induction of apoptosis in human ViBo cells assessed as effect on cell morphology; type: functional, cell-based
[8] = tested on: PBMC; test: Immunosuppressive activity in PHA-stumulated CSFE labeled human enriched PBMC assessed as cell growth at IC50 after 72 hrs by flow cytometric analysis (reference value: 65.90%); type: functional
[9] = tested on: HeLa; test: Induction of apoptosis in human HeLa cells assessed as chromatin condensation by DAPI staining-based fluorescence microscopic analysis; type: functional, cell-based
[10] = Cell cycle arrest in human ViBo cells assessed as accumulation at G1 phase at IC50 after 24 hrs by propidium iodide staining-based flow cytometric analysis relative to control; type: functional
[11] = tested on: ViBo; test: Induction of apoptosis in human ViBo cells assessed as caspase-3 activation at 95 to 97 uM after 15 mins by DAPI staining-based epifluorescence microscopic analysis; type: functional, cell-based
[12] = tested on: HeLa; test: Cell cycle arrest in human HeLa cells assessed as accumulation at sub-G1 phase at IC50 after 24 hrs by propidium iodide staining-based flow cytometric analysis relative to control; type: functional
[13] = Cytotoxicity against PHA-activated human lymphocytes at IC50 after 72 hrs by LDH release assay; type: cell-based; conditions: lymphocyte
[14] = Cell cycle arrest in human CaSki cells assessed as accumulation at sub-G1 phase at IC50 after 24 hrs by propidium iodide staining-based flow cytometric analysis relative to control; type: functional; conditions: Ca-Ski
[15] = tested on: HeLa; test: Antiproliferative activity against human HeLa cells after 24 hrs by MTT assay; type: functional, cell-based
[16] = tested on: ViBo; test: (§2) Antiproliferative activity against human ViBo cells after 24 hrs by MTT assay; type: functional, cell-based
[17] = as §2; type: functional, cell-based
[18] = tested on: HeLa; test: Induction of apoptosis in human HeLa cells assessed as caspase-3 activation at 95 to 97 uM after 15 mins by DAPI staining-based epifluorescence microscopic analysis; type: functional, cell-based
[19] = Cell cycle arrest in human CaSki cells assessed as accumulation at G2/M phase at IC50 after 24 hrs by propidium iodide staining-based flow cytometric analysis relative to control; type: functional; conditions: Ca-Ski
[20] = Cell cycle arrest in human ViBo cells assessed as accumulation at G2/M phase at IC50 after 24 hrs by propidium iodide staining-based flow cytometric analysis relative to control; type: functional
[21] = Cell cycle arrest in human CaSki cells assessed as accumulation at S phase at IC50 after 24 hrs by propidium iodide staining-based flow cytometric analysis relative to control; type: functional; conditions: Ca-Ski
[22] = Cell cycle arrest in human ViBo cells assessed as accumulation at sub-G1 phase at IC50 after 24 hrs by propidium iodide staining-based flow cytometric analysis relative to control; type: functional
[23] = tested on: HeLa; test: Cell cycle arrest in human HeLa cells assessed as accumulation at S phase at IC50 after 24 hrs by propidium iodide staining-based flow cytometric analysis relative to control; type: functional
[24] = Cell cycle arrest in human CaSki cells assessed as accumulation at G1 phase at IC50 after 24 hrs by propidium iodide staining-based flow cytometric analysis relative to control; type: functional; conditions: Ca-Ski
[25] = tested on: Ca-Ski; test: Induction of apoptosis in human CaSki cells assessed as caspase-3 activation at 95 to 97 uM after 15 mins by DAPI staining-based epifluorescence microscopic analysis; type: functional, cell-based
[26] = tested on: Ca-Ski; test: Induction of apoptosis in human CaSki cells assessed as DNA fragmentation at 95 to 97 uM after 24 hrs by TUNEL assay; type: functional, cell-based
[27] = tested on: ViBo; test: Induction of apoptosis in human ViBo cells assessed as chromatin condensation by DAPI staining-based fluorescence microscopic analysis; type: functional, cell-based
[28] = tested on: ViBo; test: Induction of apoptosis in human ViBo cells assessed as DNA fragmentation at 95 to 97 uM after 24 hrs by TUNEL assay; type: functional, cell-based
[29] = tested on: Ca-Ski; test: Induction of apoptosis in human CaSki cells assessed as effect on cell morphology; type: functional, cell-based
[30] = tested on: HeLa; test: Cell cycle arrest in human HeLa cells assessed as accumulation at G1 phase at IC50 after 24 hrs by propidium iodide staining-based flow cytometric analysis (reference value: 62.51 +/- 3.76%); type: functional
[31] = tested on: HeLa; test: Cytotoxicity against human HeLa cells at IC50 after 24 hrs by LDH release assay relative to control; type: functional
[32] = tested on: HeLa; test: Induction of apoptosis in human HeLa cells assessed as DNA fragmentation at 95 to 97 uM after 24 hrs by TUNEL assay; type: functional, cell-based
[33] = tested on: HeLa; test: Cell cycle arrest in human HeLa cells assessed as accumulation at G2/M phase at IC50 after 24 hrs by propidium iodide staining-based flow cytometric analysis relative to control; type: functional
[34] = tested on: Ca-Ski; test: Induction of apoptosis in human CaSki cells assessed as chromatin condensation by DAPI staining-based fluorescence microscopic analysis; type: functional, cell-based
[35] = tested on: Ca-Ski; test: Induction of apoptosis in human CaSki cells assessed as DNA fragmentation at 10 to 18 uM after 24 hrs by TUNEL assay; type: functional, cell-based
[36] = tested on: Ca-Ski; test: Induction of apoptosis in human CaSki cells assessed as caspase-3 activation at 10 to 18 uM after 15 mins by DAPI staining-based epifluorescence microscopic analysis; type: functional, cell-based
[37] = tested on: HeLa; test: Induction of apoptosis in human HeLa cells assessed as caspase-3 activation at 10 to 18 uM after 15 mins by DAPI staining-based epifluorescence microscopic analysis; type: functional, cell-based
[38] = tested on: ViBo; test: Induction of apoptosis in human ViBo cells assessed as caspase-3 activation at 10 to 18 uM after 15 mins by DAPI staining-based epifluorescence microscopic analysis; type: functional, cell-based
[39] = tested on: ViBo; test: Induction of apoptosis in human ViBo cells assessed as DNA fragmentation at 10 to 18 uM after 24 hrs by TUNEL assay; type: functional, cell-based
[40] = tested on: HeLa; test: Induction of apoptosis in human HeLa cells assessed as DNA fragmentation at 10 to 18 uM after 24 hrs by TUNEL assay; type: functional, cell-based

Structure (SMILES)	Activity [1]	Activity [2]	Activity [3]	IC50 [4]	Activity [5]	Activity [6]	Activity [7]	Activity [8]	Activity [9]	Activity [10]	Activity [12]	Activity [13]	Activity [14]	Activity [15]	IC50 [15]	Activity [16]	IC50 [17]	Activity [19]	Activity [20]	Activity [21]	other results
CC(=O)O[C@H]1CC[C@@]2(C)[C@@H](CC[C@@H]3[C@@H]2CC(=O)[C@]2(C)[C@@H]([C@H](C)C(=O)CC[C@@H](C)C[Se]C#N)[C@@H](OC(C)=O)C[C@@H]32)C1	16%	Active	0%	97 µM	Dose-dependent effect	16.2%	Active	25.28%	Active	59.3%	4.74%	Non-toxic	8.2%	Dose-dependent effect	95 µM	Dose-dependent effect	97 µM	13.2%	5.8%	19.4%	Activity [11]: Active; Activity [18]: Active; Activity [22]: 10.8%; Activity [23]: 18.54%; Activity [24]: 49.2%; Activity [25]: Active; Activity [26]: Active; Activity [27]: Active; Activity [28]: Active; Activity [29]: Active; Activity [30]: 64.04%; Activity [31]: 27%; Activity [32]: Active; Activity [33]: 10.9%; Activity [34]: Active
CC(=O)O[C@H]1C(=O)[C@@]2(C)[C@H]([C@H](OC(=O)c3ccccc3)[C@]3(O)C[C@H](OC(=O)[C@H](O)[C@@H](NC(=O)c4ccccc4)c4ccccc4)C(C)=C1C3(C)C)[C@]1(OC(C)=O)CO[C@@H]1C[C@@H]2O [PACLITAXEL]				2.9 µM													1.6 µM				
CC(=O)O[C@H]1CC[C@@]2(C)C(=CC[C@H]3[C@@H]4C[C@H](OC(C)=O)[C@H]([C@H](C)C(=O)CC[C@@H](C)C[Se]C#N)[C@@]4(C)CC[C@@H]32)C1	45%	Active	33%	15 µM	Dose-dependent effect	8.67%	Active	51.96%	Active	69.5%	12.6%	Non-toxic	41.4%	Dose-dependent effect	10 µM	Dose-dependent effect	18 µM	9.68%	7.27%	18.9%	Activity [35]: Active; Activity [36]: Active; Activity [37]: Active; Activity [22]: 8.13%; Activity [23]: 17.04%; Activity [38]: Active; Activity [24]: 31.2%; Activity [39]: Active; Activity [40]: Active; Activity [27]: Active; Activity [29]: Active; Activity [30]: 56.19%; Activity [31]: 72%; Activity [33]: 11.58%; Activity [34]: Active

Reference: ChEMBL document CHEMBL3351703, “Probing the selective antitumor activity of 22-oxo-26-selenocyanocholestane derivatives” (Eur J Med Chem, 2014)
